Measured values taken from article PMC4769084, “Aminoglycoside binding and catalysis specificity of aminoglycoside 2″-phosphotransferase IVa: A thermodynamic, structural and kinetic study” (Biochimica et Biophysica Acta, 2016).
Where two headings read alike, the source gives them in different places.

Legend:
[1] = target: T1, APH(2″)-IVa (Enterococcus casseliflavus, UniProt O68183); details: for Kd/Km: ratio of ITC Kd to steady state Km; for phosphotransferase activity: confirmed at 5 μM APH(2″)-IVa, 2.5 mM ATP; for Km / kcat: saturating MgATP (2.5 mM), aminoglycoside 0 to 100 μM, 25 °C, pH 7.5; for Km: na = no detectable activity; for kcat: na = no detectable activity (< 0.001 s^− 1), enzyme up to 5 μM
Description: (§1) Unless otherwise stated, kinetic experiments were carried out in a buffer that contained 50 mM Tris, 40 mM KCl, 1 mM free MgCl2 adjusted to pH 7.5 with HCl at 25 °C. In the case of experiments with CaATP, the buffer was MgCl2-free.
Steady state kinetics were carried out in thermostatically controlled beakers as already described. Unless otherwise stated, the enzyme concentration was 0.5 μM in the presence of various concentrations of aminoglycoside (5 to 100 μM). […] At regular intervals, a volume of 80 μL of the reaction mixture was sampled from the beaker and mixed in a tube containing 40 μL of perchloric acid at 10%. The precipitated protein was then removed by centrifugation at 4 °C, 20 min at 19,000 g. ADP and ATP were separated by HPLC (Waters) on an anion-exchange column (SAX-Partisphere, AIT France). The mobile phase was 200 mM ammonium phosphate–HCl buffer at pH 5.5 and 10% acetonitrile. A 100 μL volume of the quenched reaction mixture was diluted in 900 μL of buffer containing the mobile phase supplemented with 5 N KOH to readjust the pH to 5.5. Quantification of ADP and ATP was obtained by integrating HPLC peaks at 259 nm and their concentrations were reported relative to the enzyme concentration. […] For each injected sample, the concentration of ADP was calculated using the following equation, where [ATP]i is the initial ATP concentration used in the experiment:(3) ADP=ADPpeakarea×ATPi/ADPpeakarea+ATPpeakarea

[2] = target: T1, APH(2″)-IVa; test: Transient kinetics, stopped–flow with MDCC-ParM ADP biosensor (free ADP); type: biochemical; details: 5 μM APH(2″)-IVa, 500 μM ATP, 100 μM aminoglycoside, 50 μM MDCC-ParM
Description: as §1
(§2) Transient kinetic experiments were carried out at 25 °C in a QFM-400 quench–flow (Bio-Logic, France) or in a SF-61 DX2 stopped–flow (TgK Scientific, UK). In the quench–flow method, APH(2″)-IVa, pre-incubated with the aminoglycoside, was mixed with ATP in the apparatus. The mixtures were aged for specific times (from 8 ms to several seconds), quenched in 10% perchloric acid and the ADP and ATP measured by HPLC, as described above. Because perchloric acid dissociates all non-covalent complexes, by this method, concentrations in the reaction mixtures of total ADP, that is to say enzyme-bound ADP plus free ADP, are obtained. In the stopped–flow experiments, a free ADP fluorescent biosensor, MDCC-ParM [28], was included in the ATP solution. By this method, concentrations in the reaction mixtures of free ADP only are obtained. Experiments were carried out as previously described for APH(3′)-IIIa.

[3] = target: T1, APH(2″)-IVa; test: Isothermal titration calorimetry of aminoglycoside binding
Description: The enzyme was extensively dialyzed against buffer containing 50 mM Tris–HCl at pH 7.5, 40 mM KCl, 1 mM MgCl2 and ligand solutions were prepared at 5 mM in the final dialysate with readjusting pH to 7.5. The enzyme was used at a final concentration of 150 μM. ITC experiments were carried out at 25 °C in a VP-ITC calorimeter (MicroCal, GE Healthcare). Titrations consisted of 40 injections of 5 μL of ligand every 300 s. The cell stirring speed was 300 rpm. To obtain reliable dissociation constants, the c-value, a unitless parameter obtained by the multiplication of the association constant and the total concentration of ligand binding sites, was kept between 1.8 and 100 for all titrations. Control runs were performed by titrating ligands to buffer, and the resulting background signal was subtracted from the corresponding experimental data. Experiments were carried out at 1 mM free Mg^2 +.
Binding and thermodynamic parameters Ka (association constant), ΔH (enthalpy change) and stoichiometry were obtained by nonlinear least-squares fitting of experimental data using a single-site binding model of the Origin software package (version 5.0) provided with the instrument. The free energy of binding (ΔG) and entropy change at 25 °C (ΔS) were obtained using the following equations:(1) ΔG=–RTlnKa (2) ΔG=ΔH–TΔS
The experiments were performed in triplicate (except with G418 and kanamycin B, in duplicate) and the error values given in the tables are standard deviations.

[4] = test system: APH(2″)-IVa; design: method as in Toth et al. [5]; details: values in brackets, coupled enzyme system; ref Toth et al. [5]; cited from earlier work
[5] = target: T1, APH(2″)-IVa; test: Transient kinetics, rapid quench–flow (total ADP); type: biochemical; details: 5 μM APH(2″)-IVa, 500 μM ATP, 100 μM aminoglycoside; for Aburst: ± standard error of fit
Description: as §1, §2

[6] = test system: NC[C@H]1O[C@H](O[C@H]2[C@H](O)[C@@H](O[C@H]3O[C@H](CO)[C@@H](O)[C@H](N)[C@H]3O)[C@H](N)C[C@@H]2N)[C@H](N)C[C@@H]1O; test: purified protein, by the assay type; details: other: saturating MgATP (2.5 mM), aminoglycoside 0 to 100 μM, 25 °C, pH 7.5, na = no detectable activity
Description: (§3) Steady state kinetics were carried out in thermostatically controlled beakers as already described [27]. Unless otherwise stated, the enzyme concentration was 0.5 μM in the presence of various concentrations of aminoglycoside (5 to 100 μM). […] Reactions were initiated by adding a saturating concentration of ATP (2.5 mM) in a thermostatically controlled beaker containing APH(2″)-IVa and aminoglycoside. At regular intervals, a volume of 80 μL of the reaction mixture was sampled from the beaker and mixed in a tube containing 40 μL of perchloric acid at 10%. The precipitated protein was then removed by centrifugation at 4 °C, 20 min at 19,000 g. ADP and ATP were separated by HPLC (Waters) on an anion-exchange column (SAX-Partisphere, AIT France). The mobile phase was 200 mM ammonium phosphate–HCl buffer at pH 5.5 and 10% acetonitrile. A 100 μL volume of the quenched reaction mixture was diluted in 900 μL of buffer containing the mobile phase supplemented with 5 N KOH to readjust the pH to 5.5. Quantification of ADP and ATP was obtained by integrating HPLC peaks at 259 nm and their concentrations were reported relative to the enzyme concentration. Concentrations (in the quenched reaction mixtures) between 0.5 and 500 μM of ADP or ATP gave a linear and equivalent OD259 response. For each injected sample, the concentration of ADP was calculated using the following equation, where [ATP]i is the initial ATP concentration used in the experiment:(3) ADP=ADPpeakarea×ATPi/ADPpeakarea+ATPpeakarea

[7] = test system: CN[C@@H]1[C@@H](O)[C@@H](O[C@@H]2[C@@H](O)[C@H](O[C@H]3OC(CN)=CC[C@H]3N)[C@@H](N)C[C@H]2N)OC[C@]1(C)O; test: purified protein, by the assay type; details: other: saturating MgATP (2.5 mM), aminoglycoside 0 to 100 μM, 25 °C, pH 7.5, na = no detectable activity
Description: as §3

[8] = test system: NC[C@H]1O[C@H](O[C@H]2[C@H](O)[C@@H](O[C@H]3O[C@H](CO)[C@@H](O)[C@H](N)[C@H]3O)[C@H](N)C[C@@H]2N)[C@H](N)[C@@H](O)[C@@H]1O; test: purified protein, by the assay type; details: other: saturating MgATP (2.5 mM), aminoglycoside 0 to 100 μM, 25 °C, pH 7.5, na = no detectable activity
Description: as §3

T1 sequence (O68183 entry or part of it): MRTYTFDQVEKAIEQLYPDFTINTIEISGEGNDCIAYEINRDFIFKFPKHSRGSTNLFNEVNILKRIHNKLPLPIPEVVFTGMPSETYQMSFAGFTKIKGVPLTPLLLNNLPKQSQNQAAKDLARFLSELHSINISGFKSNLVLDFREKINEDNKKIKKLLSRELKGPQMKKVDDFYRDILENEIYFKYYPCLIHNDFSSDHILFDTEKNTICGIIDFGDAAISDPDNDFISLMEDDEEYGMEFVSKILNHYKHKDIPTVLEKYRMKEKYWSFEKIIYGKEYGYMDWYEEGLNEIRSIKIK

NC[C@H]1O[C@H](O[C@H]2[C@H](O)[C@@H](O[C@H]3O[C@H](CO)[C@@H](O)[C@H](N)[C@H]3O)[C@H](N)C[C@@H]2N)[C@H](N)C[C@@H]1O [Tobramycin]
Kd/Km [1]: 0.3 | klag [2]: 3.3 ± 0.1 s^− 1 | kss [2]: 1.05 ± 0.01 s^− 1 | Kd [3]: 3.9 ± 0.6 µM | affinity of the apoprotein, times greater than for kanamycin A and for amikacin ([3]; ITC Kd comparison): 20 times | Km [4]: 1.5 µM | kcat [4]: (1.80 ± 0.03) s^− 1 | kburst [5]: 2.1 ± 0.4 s^− 1 | kss [5]: 1.08 ± 0.02 s^− 1 | Aburst [5]: 0.44 ± 0.05 mol/mol

NCC[C@H](O)C(=O)N[C@@H]1C[C@H](N)[C@@H](O[C@H]2O[C@H](CN)[C@@H](O)[C@H](O)[C@H]2O)[C@H](O)[C@H]1O[C@H]1O[C@H](CO)[C@@H](O)[C@H](N)[C@H]1O [Amikacin]
phosphotransferase activity [1]: absence of activity | Kd [3]: 82.2 ± 8.9 µM | Km [4]: 98 µM | kcat [4]: (0.15 ± 0.01) s^− 1

Kanamycin A
steady state rate constant ([1]; 0.5 μM APH(2″)-IVa, 100 μM kanamycin A, 100 μM MgATP): 0.23 s^− 1 | steady state rate constant ([1]; 0.5 μM APH(2″)-IVa, 100 μM kanamycin A, 200 μM MgATP): 0.37 s^− 1 | kss, CaATP phosphotransferase activity ([1]; 0.5 μM APH(2″)-IVa, 100 μM kanamycin A, 2 mM CaATP): 0.092 s^− 1 | kss, MgATP phosphotransferase activity ([1]; 0.5 μM APH(2″)-IVa, 100 μM kanamycin A, 2 mM MgATP): 0.84 s^− 1 | Km, fold lower compared with tobramycin ([1]; in the presence of ATP): 3.3 fold | Kd/Km [1]: 20.0 | Kd/Km ([1]; listed as kanamycin A): 20 | klag [2]: 3.4 ± 0.1 s^− 1 | kss [2]: 0.70 ± 0.01 s^− 1 | Kd, fold larger compared to tobramycin ([3]; ITC Kd comparison): 20 fold | Km [4]: 3.3 µM | kcat [4]: (0.92 ± 0.01) s^− 1 | kburst [5]: 3.4 ± 0.7 s^− 1 | kss [5]: 0.77 ± 0.02 s^− 1 | Aburst [5]: 0.38 ± 0.04 mol/mol

CNC(C)C1CCC(N)C(OC2C(N)CC(N)C(OC3OCC(C)(O)C(NC)C3O)C2O)O1 (centres unmarked) [Gentamicin]
Kd/Km [1]: 2.9 | Km [1]: 3.3 ± 0.6 µM | kcat [1]: 0.47 ± 0.01 s^− 1 | Kd [3]: 9.7 ± 5 µM

CN[C@@H]1[C@@H](O)[C@@H](O[C@@H]2[C@@H](O)[C@H](O[C@H]3O[C@H]([C@@H](C)O)[C@@H](O)[C@H](O)[C@H]3N)[C@@H](N)C[C@H]2N)OC[C@]1(C)O [G418]
Kd/Km [1]: 12.5 | Km [1]: 2.2 ± 0.4 µM | kcat [1]: 0.49 ± 0.01 s^− 1 | klag [2]: 1.6 ± 0.1 s^− 1 | kss [2]: 0.33 ± 0.01 s^− 1 | Kd ([3]; read-out: Kd): 27.5 ± 3.3 µM | kburst [5]: 2.0 ± 1.1 s^− 1 | kss [5]: 0.35 ± 0.04 s^− 1 | Aburst [5]: 0.34 ± 0.11 mol/mol

APH(2″)-IVa (Enterococcus casseliflavus)
Km [6]: 13.2 ± 2.2 µM | kcat [6]: 1.64 ± 0.08 s^− 1 | kcat/Km [6]: 0.124 μM^− 1 s^− 1 | Km [7]: 3.5 ± 0.6 µM | kcat [7]: 0.73 ± 0.02 s^− 1 | kcat/Km [7]: 0.209 μM^− 1 s^− 1 | Km [8]: 12.5 ± 2.9 µM | kcat [8]: 1.69 ± 0.11 s^− 1 | kcat/Km [8]: 0.135 μM^− 1 s^− 1

CN[C@@H]1[C@@H](O)[C@@H](O[C@@H]2[C@@H](O)[C@H](O[C@H]3OC(CN)=CC[C@H]3N)[C@@H](N)C[C@H]2N)OC[C@]1(C)O [Sisomicin]
Kd/Km [1]: 0.7 | klag [2]: 1.6 ± 0.1 s^− 1 | kss [2]: 0.48 ± 0.01 s^− 1 | Kd [3]: 2.3 ± 1.6 µM | kburst [5]: 2.0 ± 0.4 s^− 1 | kss [5]: 0.50 ± 0.02 s^− 1 | Aburst [5]: 0.48 ± 0.07 mol/mol

NC[C@H]1O[C@H](O[C@H]2[C@H](O)[C@@H](O[C@H]3O[C@H](CO)[C@@H](O)[C@H](N)[C@H]3O)[C@H](N)C[C@@H]2N)[C@H](N)[C@@H](O)[C@@H]1O [Kanamycin B]
Kd/Km [1]: 0.5 | Kd [3]: 5.7 ± 1.1 µM

NC[C@@H]1O[C@H](O[C@H]2[C@@H](O)[C@H](O[C@@H]3[C@@H](O)[C@H](N)C[C@H](N)[C@H]3O[C@H]3O[C@H](CO)[C@@H](O)[C@H](O)[C@H]3N)O[C@@H]2CO)[C@H](N)[C@@H](O)[C@@H]1O [Paromomycin]
phosphotransferase activity [1]: absence of activity | Kd [3]: 63.6 ± 29 µM
